In US20230263822A1, “MODULATION OF FACTOR 11 EXPRESSION” (Ionis Pharmaceuticals, Inc., priority 2008, published 2023):
Strand notation (5' to 3'): a small letter for the sugar, then the base; units joined by * are phosphorothioate-linked, units joined directly phosphodiester-linked; [ ] holds rarer units or linkages, { } end groups; capitals alone tell only the bases. e = 2'-O-(2-methoxyethyl) (MOE); [5mC] = 5-methylcytosine; d = 2'-deoxy (DNA)

Legend:
[1] = system: human Factor 11 mRNA; assay: Dose-dependent inhibition of human Factor 11 in HepG2 cells, lipofectin 9.375-75 nM (Example 4); type: cell-based
Outline: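 HepG2 cells transfected via lipofectin with antisense oligonucleotide at 9.375, 18.75, 37.5 or 75 nM for about 16 h. Factor 11 mRNA quantified by real-time RT-PCR (primer probe set RTS 2966) and normalized to total RNA (RIBOGREEN). Results expressed as percent inhibition versus untreated cells.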

[2] = system: human Factor 11 mRNA; assay: Dose-dependent inhibition of human Factor 11 in HepG2 cells, electroporation 0.7-20 uM (Example 4); type: cell-based
Outline: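 HepG2 cells electroporated with antisense gapmers at 0.7, 2.2, 6.7 and 20 μM, treated ~16 h. Factor 11 mRNA quantified by qRT-PCR (primer probe set RTS 2966), normalised to RIBOGREEN total RNA; expressed as percent inhibition versus untreated control cells.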

[3] = system: human Factor 11 mRNA; assay: Dose-dependent antisense inhibition of human Factor 11 in HepG2 cells, lipofectin 9.375-150 nM (Example 2); type: cell-based; conditions: ~16 h
Procedure: Cells were plated at a density of 10,000 cells per well and transfected using lipofectin reagent with 9.375 nM, 18.75 nM, 37.5 nM, 75 nM, and 150 nM concentrations of antisense oligonucleotide, as specified in Table 3. After a treatment period of approximately 16 hours, RNA was isolated from the cells and Factor 11 mRNA levels were measured by quantitative real-time PCR. Human Factor 11 primer probe set RTS 2966 (forward sequence: […], incorporated herein as SEQ ID NO: 3; reverse sequence: […], incorporated herein as SEQ ID NO: 4; probe sequence: TTGTCTACTGAAGCACACCCAAACAGGGAX, incorporated herein as SEQ ID NO: 5) was used to measure mRNA levels. Factor 11 mRNA levels were adjusted according to total RNA content, as measured by RIBOGREEN. Results are presented as percent inhibition of Factor 11, relative to untreated control cells.

[4] = system: human Factor 11 mRNA; assay: Antisense inhibition of human Factor 11 in HepG2 cells, lipofectin, 75 nM (Example 1); type: cell-based; conditions: 75 nM antisense oligonucleotide, ~24 h, relative to untreated control cells, gapmers targeted to SEQ ID NO: 1
Outline: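 HepG2 cells transfected via lipofectin with 75 nM antisense oligonucleotide (5-10-5 MOE gapmers, 20-mers, phosphorothioate, 5-methylcytidines), treated ~24 h. Factor 11 mRNA quantified by real-time PCR, normalised to RIBOGREEN total RNA; percent inhibition versus untreated cells.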

[5] = system: human Factor 11 mRNA; assay: Antisense inhibition of human Factor 11 in HepG2 cells by microwalk gapmers, lipofectin, 75 nM (Example 3); type: cell-based; conditions: HepG2 cells, lipofectin, gapmers targeted to nucleobases 1062 to 1091 of SEQ ID NO: 1
Outline: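 HepG2 cells (10,000/well) were transfected via lipofectin with 75 nM 20-mer MOE gapmers (phosphorothioate, 5-methyl-C) for about 24 h. Factor 11 mRNA was measured by qRT-PCR, normalized to RIBOGREEN total RNA, and given as percent inhibition versus untreated cells.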

[6] = system: human Factor 11 mRNA; assay: Dose-dependent inhibition of human Factor 11 in HepG2 cells, electroporation 123.46-10,000 nM (Example 31); type: cell-based; conditions: for Percent inhibition of Factor 11 mRNA at 123.47 nM / Percent inhibition of Factor 11 mRNA at 370.37 nM / IC50: electroporation; for Percent inhibition of Factor 11 mRNA at 123.47 nM / Percent inhibition of Factor 11 mRNA at 370.37 nM / Percent inhibition of Factor 11 mRNA at 1,111.11 nM / Percent inhibition of Factor 11 mRNA at 3,333.33 nM / Percent inhibition of Factor 11 mRNA at 10,000.0 nM: approx. 16 hours, relative to untreated control cells; for Percent inhibition of Factor 11 mRNA at 1,111.11 nM: electroporation, 1,111.11 nM; for Percent inhibition of Factor 11 mRNA at 3,333.33 nM: electroporation, 3,333.33 nM; for Percent inhibition of Factor 11 mRNA at 10,000.0 nM: electroporation, 10,000.0 nM; for IC50: Factor 11 mRNA expression
Procedure: Cells were plated at a density of 20,000 cells per well and transfected using electroporation with 123.46 nM, 370.37 nM, 1,111.11 nM, 3,333.33 nM and 10,000 nM concentrations of antisense oligonucleotide, as specified in Table 45. After a treatment period of approximately 16 hours, RNA was isolated from the cells and Factor 11 mRNA levels were measured by quantitative real-time PCR. Human Factor 11 primer probe set RTS 2966 was used to measure mRNA levels. Factor 11 mRNA levels were adjusted according to total RNA content, as measured by RIBOGREEN. Results are presented as percent inhibition of Factor 11, relative to untreated control cells.

[7] = Viscosity of ISIS antisense oligonucleotides, micro-viscometer at 25 °C (Example 47); type: physicochemical; conditions: for Concentration: concentration of the viscosity sample, UV reading at 260 nM at 85° C.; for Viscosity: in water, micro-viscometer at 25° C., at the concentration of the same line
Procedure: The viscosity of antisense oligonucleotides targeting human Factor 11 was measured with the aim of screening out antisense oligonucleotides which have a viscosity more than 40 cP at a concentration of 165-185 mg/mL.
ISIS oligonucleotides (32-35 mg) were weighed into a glass vial, 120 μL of water was added and the antisense oligonucleotide was dissolved into solution by heating the vial at 50° C. Part of (75 μL) the pre-heated sample was pipetted to a micro-viscometer (Cambridge). The temperature of the micro-viscometter was set to 25° C. and the viscosity of the sample was measured. Another part (20 μL) of the pre-heated sample was pipetted into 10 mL of water for UV reading at 260 nM at 85° C. (Cary UV instrument).

[8] = system: human Factor 11 mRNA; assay: Antisense inhibition of human Factor 11 in HepG2 cells, electroporation, 8,000 nM (Example 30); type: cell-based; conditions: electroporation, 8,000 nM antisense oligonucleotide
Outline: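 HepG2 cells electroporated with 8,000 nM 5-10-5, 5-8-5 or 6-8-6 MOE gapmers (phosphorothioate, 5-methylcytidine), ~24 h. Factor 11 mRNA quantified by qRT-PCR, normalised to RIBOGREEN total RNA. Reported as percent inhibition versus untreated cells.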

For “413476 (antisense eT*eT*eG*eA*eG*dA*dT*dT*d[5mC]*dT*dT*dT*dG*dG*dG*e[5mC]*e[5mC]*eA*eT*eT) [compound 413476]”, the IC50 [1] was 0.021 µM, the “percent inhibition of Factor 11 at 9.375 nM” value ([1]; 9.375 nM, relative to untreated control cells) was 24% and the “percent inhibition of Factor 11 at 18.75 nM” value ([1]; 18.75 nM, relative to untreated control cells) was 58%. The “percent inhibition of Factor 11 at 37.5 nM” value ([1]; 37.5 nM, relative to untreated control cells) was 62%, the “percent inhibition of Factor 11 at 75 nM” value ([1]; 75 nM, relative to untreated control cells) was 77% and the IC50 [2] was 0.9 µM. For the same substance, the “percent inhibition of Factor 11 at 0.7 μM” value ([2]; 0.7 μM, relative to untreated control cells) was 40%, the “percent inhibition of Factor 11 at 2.2 μM” value ([2]; 2.2 μM, relative to untreated control cells) was 69% and the “percent inhibition of Factor 11 at 6.7 μM” value ([2]; 6.7 μM, relative to untreated control cells) was 88%. For the same substance, the “percent inhibition of Factor 11 at 20 μM” value ([2]; 20 μM, relative to untreated control cells) was 93%, the “percent inhibition of Factor 11 at 9.375 nM” value ([3]; 9.375 nM) was 26% and the “percent inhibition of Factor 11 at 18.75 nM” value ([3]; 18.75 nM) was 44%. The “percent inhibition of Factor 11 at 37.5 nM” value ([3]; 37.5 nM) was 64%, the “percent inhibition of Factor 11 at 75 nM” value ([3]; 75 nM) was 73% and the “percent inhibition of Factor 11 at 150 nM” value ([3]; 150 nM) was 82%. For the same substance, the IC50 [3] was 0.025 µM, the “% inhibition” value [4] was 88% and the “% inhibition” value [5] was 93%.

For “445498 (antisense eG*eG*eT*eG*e[5mC]*eA*d[5mC]*dA*dG*dT*dT*dT*d[5mC]*dT*eG*eG*e[5mC]*eA*eG*eG) [compound 445498]”, the “Percent inhibition of Factor 11 mRNA at 123.47 nM” value [6] was 3%, the “Percent inhibition of Factor 11 mRNA at 370.37 nM” value [6] was 1% and the “Percent inhibition of Factor 11 mRNA at 1,111.11 nM” value [6] was 27%. The “Percent inhibition of Factor 11 mRNA at 3,333.33 nM” value [6] was 50%, the “Percent inhibition of Factor 11 mRNA at 10,000.0 nM” value [6] was 58% and the IC50 [6] was 4.8 µM. The Concentration [7] was 157 mg/mL, the Viscosity [7] was 21 cP and the “Percent inhibition of human Factor 11 mRNA levels” value [8] was 83%.

With “445504 (antisense eG*eG*e[5mC]*eA*eT*eT*dG*dG*dT*dG*d[5mC]*dA*d[5mC]*dA*eG*eT*eT*eT*e[5mC]*eT) [compound 445504]” the “Percent inhibition of Factor 11 mRNA at 123.47 nM” value [6] was 8%, the “Percent inhibition of Factor 11 mRNA at 370.37 nM” value [6] was 20% and the “Percent inhibition of Factor 11 mRNA at 1,111.11 nM” value [6] was 38%. For the same substance, the “Percent inhibition of Factor 11 mRNA at 3,333.33 nM” value [6] was 53%, the “Percent inhibition of Factor 11 mRNA at 10,000.0 nM” value [6] was 68% and the IC50 [6] was 2.7 µM. The Concentration [7] was 139 mg/mL, the Viscosity [7] was 20 cP and the “Percent inhibition of human Factor 11 mRNA levels” value [8] was 87%.

In the case of “445509 (antisense e[5mC]*eG*eG*eA*e[5mC]*eG*dG*d[5mC]*dA*dT*dT*dG*dG*dT*eG*e[5mC]*eA*e[5mC]*eA*eG) [compound 445509]”, the Concentration [7] is reported as 167 mg/mL, the Viscosity [7] is reported as over 100 cP and the “Percent inhibition of human Factor 11 mRNA levels” value [8] is reported as 84%.

In the case of “445513 (antisense eG*e[5mC]*eA*eG*e[5mC]*eG*dG*dA*d[5mC]*dG*dG*d[5mC]*dA*dT*eT*eG*eG*eT*eG*e[5mC]) [compound 445513]”, the Concentration [7] is reported as 167 mg/mL, the Viscosity [7] is reported as 34 cP and the “Percent inhibition of human Factor 11 mRNA levels” value [8] is reported as 85%.

With “445530 (antisense eG*e[5mC]*eA*eT*eT*dG*dG*dT*dG*d[5mC]*dA*d[5mC]*dA*eG*eT*eT*eT*e[5mC]) [compound 445530]” the Concentration [7] was 177 mg/mL, the Viscosity [7] was 25 cP and the “Percent inhibition of human Factor 11 mRNA levels” value [8] was 83%.
